Test results as given in patent US4870057A, “Use of fructose-1,6-diphosphate in the treatment of acute alcoholic intoxication and chronic ethylism, and related pharmaceutical compositions” (priority 1988, dated 1989).
Values joined by “and” are separate entries in the source; they are usually repeats but may differ in a detail not shown here. Identical values can stand only once.

Tests used:
[1] = tested on: chronic alcoholics at a stage of detoxication; assay: Psychiatric symptoms (psychic and behavioural state scores) in chronic alcoholics at a stage of detoxication; assay type: in vivo, patients (human); conditions: for Motor derangement score: FDP group (20 g/day i.v. days II-VII plus nutrition), basal 1.4; for Motor derangement score / Behavioural disorders score / Conscience disorders score: p < 0.01 vs basal; for Behavioural disorders score / Conscience disorders score: FDP group; for Behavioural disorders score: basal 1.3; for Conscience disorders score: basal 1.5
Experimental: (§1) This study left out patients more than 70 years old or patients suffering from severe renal or cardiovascular impairment, diabetes or other pathologies (epilepsy, delirium […] could prevent evaluation of the investigated treatment. During study, which was conducted single blind, two therapeutic procedures were compared for a period of 8 days allotted as follows: one day (I) for selection and basic determinations at the time of alcohol withdrawal; six days (II-VII) for treatment; one day (VIII) for follow-up. […] Some of the patients received, days II to IV, a total parenteral nutrition (NTP) followed by hypercaloric diet during the remaining three days. During the study, no further drugs were administered except those which would be required by concomitant pathologies and which could not interfere with the nutritional state. In the patients imperatively requiring a control of psychomotor derangement during the abstinence period, chlordimethyldiazepam (2 mg/iv) was used and the daily doses thereof were recorded. On the first day the history, particularly in respect of alcoholism, was obtained. On days I, V and VIII a thorough examination of the patient's neurological and psychiatric conditions was performed. The psychic areas were evaluated by using simplified rating scales for the psychomotor derangement and the behaviour and consciousness disorders present in the alcohol withdrawal period. For the neurological evaluation, there were taken into consideration the reflexes, the exteroceptive and propioceptive sensitivities and the presence of ataxia, tremors and cramps, and semiquantitative ratings of 0 (no symptom or normal picture) to 3 (high severity symptom or no response) were assigned.

[2] = Ethanol hematic concentrations and pharmacokinetics in volunteers given ethanol orally after FDP infusion (cross-over); assay type: in vivo, male volunteers (human)
Text: (§2) Male volunteers (ages 19 to 46, 73 kg average weight) in good conditions of health as ascertained by objective test and hematologic and biochemical analyses, participated in the investigation. None of the subjects had used drugs during the week before the study nor in the course of the study.
(§3) Each subject was given, in two sittings, with one wash-out week interval between sittings, ethanol (control) and ethanol with added fructose-1,6-diphosphate (FDP) according to an experimental cross-over design. After one night of fasting, each patient received ethanol orally, in the morning, at a rate of 0.5 g/kg body weight, as a 30% analytical grade ethyl alcohol solution in effervescent mineral water. FDP was administered at the rate of 250 mg/kg of fructose-1,6-diphosphate sodium hydrate salt in an intravenous infusion during 20 minutes (2.5 ml/kg).
(§4) From the individual data obtained in each sitting and for each subject, the values of the following parameters were calculated: maximum concentration (Cmax), time for attaining maximum concentration (Tmax), mean life of absorption (Ab t1/2), mean life of elimination (El t1/2) and area under curve zero to infinity (AUC). The ethanol and acetaldehyde concentrations were measured in the two sittings of study and the values of the pharmacokinetic parameters given above were compared by the Student's t-test for paired data, with the exception of the maximum concentration times of ethanol which were compared by the Wilcoxon test. The level of statistical significances was set at 5%.

[3] = tested on: chronic alcoholics at a stage of detoxication; assay: Neurological symptoms (impairment scores in neurological tests) in chronic alcoholics at a stage of detoxication; assay type: in vivo, patients (human); conditions: for Reflexes impairment score: basal 1.6, control 1.2; for Ataxia-tremors cramps impairment score: basal 1.7; for Sensitivity impairment score: basal 3.0
Experimental: as §1

[4] = no test described; cited from earlier work
[5] = tested on: patients in a state of acute drunkenness; assay: Vital signals (heart rate, arterial pressure) in patients with acute drunkenness; assay type: in vivo, patients (human)
Experimental: (§5) 28 patients were selected, 26 males and 2 females, aged 17 to 68, which had been taken to a first aid post for traumas suffered during a state of acute drunkenness (18 cases) or to phenomena resulting from that state of drunkenness (10 cases). Of the patients under observation, 18 were chronic alcoholics and 10 were subjects with no alcoholism story (Table 4).
(§6) The patients then received, at random, one rapid infusion of 15 g FDP as a 10% sodium salt solution of FDP, or a 5% (150 ml) glucose solution. 15 minutes after the completion of infusion, evaluations were repeated.
(§7) Following the first anamnestic and diagnostic checks, measurements were taken of the arterial pressure and the heart rate. Then, evaluation was made, in basal conditions, of the psychic and behavioral state (psychomotor excitement, vigilance, time-space orientation and lucidity) and the neurological state (equilibrium, forefinger-nose test, palpebral, corneal and pain reflexes). For the semiquantitative evaluation of the selected parameters, severity scales with arbitrary ratings were adopted. Evaluation of lucidity was made by using the figure repeating test.
(§8) The data obtained for each patient were compared with those obtained before the treatment by means of the mixed pattern variance analysis followed, in case of gross significance, by the Tukey's multiple comparison test. A 5% level was used as the minimum level of statistical significance.

[6] = tested on: patients in a state of acute drunkenness; assay: Psychic and behavioural conditions scores in patients with acute drunkenness; assay type: in vivo, patients (human)
Experimental: as §5, §6, §7, §8

[7] = Tolerability in patients with acute drunkenness; conditions: human, in vivo
Experimental: as §5, §6

[8] = Acetaldehyde hematic concentrations in volunteers given ethanol orally after FDP infusion (cross-over); assay type: in vivo, male volunteers (human); conditions: Student's t test for coupled data
Text: as §2
as §3, with “FDP was administered at the rate of 250 mg/kg of fructose-1,6-diphosphate sodium hydrate salt in an intravenous infusion during 20 minutes (2.5 ml/kg).” left out
as §4, with “The level of statistical significances was set at 5%.” left out

[9] = tested on: patients in a state of acute drunkenness; assay: Impairment scores in neurologic tests in patients with acute drunkenness; assay type: in vivo, patients (human)
Experimental: as §5, §6, §7, §8

## O=C(COP(=O)(O)O)[C@@H](O)[C@H](O)[C@H](O)COP(=O)(O)O [FDP, fructose-1,6-diphosphate]
[1]; day V, control 0.8
  Motor derangement score: 0.6
[1]; day VIII, control 0.5
  Motor derangement score: 0.4
  Behavioural disorders score: 0.3
  Conscience disorders score: 0.2
[1]; day V, control 0.7
  Behavioural disorders score: 0.4
[1]; day V, control 0.6
  Conscience disorders score: 0.3
[1]; FDP vs no FDP
  Consumption of chlordimethyldiazepam: higher consumption of chlordimethyldiazepam required by patients not having get FDP
[1]; day V, FDP treated patients only, p<0.01
  Psychiatric symptoms, improvement: improvement of all of the considered symptoms
[1]; eighth day, FDP treated patients, not in control group
  Consciousness disorders: the consciousness disorders did disappear in FDP treated patients
[1]; patients treated with FDP
  Psychiatric symptomatology connected with the alcohol withdrawal: disappeared after only five days of treatment
[2]; 0-90 min, vs control (FIG. 1)
  Ethanol AUC in the 0-90 min range, lower following FDP: 40%
[2]; 15 min
  Percent difference of ethanol concentration after FDP with respect to control (lower): 70%
[2]; 30 min
  Percent difference of ethanol concentration after FDP with respect to control (lower): 64%
[2]; 60 min
  Percent difference of ethanol concentration after FDP with respect to control (lower): 31%
[2]; FDP session, Table 2, n = 8, SD 976, control 2229
  Ethanol AUC (zero to infinity), average: 2695 mmol·min/L
[2]; FDP sitting, control 2695
  Ethanol AUC (zero to infinity), average: 2229 mmol·min/L
[2]; Student's t test, paired
  Significance of the difference in ethanol AUC vs control: no significant differences
  Significance of the difference in ethanol maximum concentration vs control: the observed difference did not attain statistical significance
[2]; from absorption half-life vs control, p<0.05
  Difference in the alcohol absorption rate: 66%
[2]; p<0.05 vs control sitting
  Time for attaining maximum ethanol concentration, longer than control: 120%
[3]; FDP group (20 g/day i.v. days II-VII plus nutrition), day V
  Reflexes impairment score: 1.2
[3]; FDP group, day V, p < 0.01 vs basal, control 0.9
  Ataxia-tremors cramps impairment score: 1.0
[3]; FDP group, day V, p < 0.01 vs basal, control 2.4
  Sensitivity impairment score: 2.1
[3]; FDP group, day VIII, p < 0.01 vs basal
  Reflexes impairment score: 1.0
[3]; FDP group, day VIII, p < 0.01 vs basal, control 0.8
  Ataxia-tremors cramps impairment score: 0.5
[3]; FDP group, day VIII, p < 0.01 vs basal, control 1.7
  Sensitivity impairment score: 1.8
[3]; day VIII, only in FDP treated group
  Reflexes, recovery: the reflexes recovered to normal
[3]; evolutive tendency in the course of the study
  Remaining neurological symptomatology, FDP vs control: does not evidence any difference betwen the two treatments
[4]
  Elimination half-life of the FDP: less than 15 minutes
[5]; 15 min after infusion of 15 g FDP, basal 67.9 (text 68), p < 0.05 vs basal, glucose 69.6 to 69.6
  Arterial diastolic pressure, final: 75.3 mm Hg and 75 mm Hg
[5]; 15 min after infusion of 15 g FDP, basal 103.1, p < 0.01 vs basal, glucose 101.7 to 96.9
  Cardiac frequency, final: 94.4 beats/minute
[5]; 15 min after infusion of 15 g FDP, basal 113.2, glucose 113.1 to 110.8
  Arterial sistolic pressure, final: 116.5 mm Hg
[5]; after FDP
  Blood pressure and heart rate in subjects with basal hypertension accompanied by tachycardia: permits the normal values of both blood pressure and heart rate to be restored
[5]; after FDP, from 103 basal, significant
  Heart rate, final: 94 pulsations/minute
[6]; 15 min after infusion of 15 g FDP, basal 1.1, p < 0.01 vs basal, glucose 1.0 to 0.7
  Motor derangement score, final: 0.3
[6]; 15 min after infusion of 15 g FDP, basal 1.1, p < 0.01 vs basal, glucose 1.2 to 1.0 (p < 0.05 vs final FDP)
  Vigilance impairment score, final: 0.5
[6]; 15 min after infusion of 15 g FDP, basal 1.6, p < 0.01 vs basal, glucose 1.5 to 2.5
  Lucidity level score, final: 3.6
[6]; 15 min after infusion of 15 g FDP, basal 4.5, p < 0.01 vs basal, glucose 4.3 to 3.4 (p < 0.05 vs final FDP)
  Orientation impairment score, final: 1.7
[6]; FDP vs glucose solution
  Comparison of treatments, final values for vigilance and orientation: significant difference between FDP and glucose solution
[6]; after FDP
  State of psychomotor disorder: tends towards complete disappearance
  Vigilance, orientation and mental lucidity: notably improved, with the tendency being towards return to normal levels
[6]; after FDP vs basal
  Psychic and behavioural state, all parameters: all of the parameters show to be positively and significantly influenced
[7]
  Tolerability: good tolerability
[8]
  Significance of acetaldehyde concentration differences, FDP vs control: no statistically significant differences at any of the considered times and ns
[9]; 15 min after infusion of 15 g FDP, basal 0.1, glucose 0.1 to 0.1
  Corneal reflex impairment score, final: 0.0
[9]; 15 min after infusion of 15 g FDP, basal 0.4, p < 0.05 vs basal, glucose 0.5 to 0.1
  Palpebral reflex impairment score, final: 0.0
[9]; 15 min after infusion of 15 g FDP, basal 0.9, p < 0.05 vs basal, glucose 0.5 to 0.2
  Pain reflex impairment score, final: 0.3
[9]; 15 min after infusion of 15 g FDP, basal 1.3, p < 0.01 vs basal, glucose 0.9 to 0.7
  "Forefinger-nose" test impairment score, final: 0.4
[9]; 15 min after infusion of 15 g FDP, basal 1.6, p < 0.01 vs basal, glucose 1.1 to 0.9
  Equilibrium impairment score, final: 1.1
[9]; after FDP
  Postural equilibrium, forefinger-nose test, palpebral and pain reflexes: significantly improved
[9]; at the end of FDP treatment, all the patients
  Corneal reflex in patients with basal impairment: normal state in this respect at the end of FDP treatment
